Laboratory results as given in ChEMBL document CHEMBL4190403, “Design, synthesis, and biological evaluation of pyrazole derivatives containing acetamide bond as potential BRAFV600E inhibitors” (Bioorg Med Chem Lett, 2018).

What was measured:
[1] = target: Serine/threonine-protein kinase B-raf (Mus musculus, UniProt P28028, V600E); test: Inhibition of full-length GST-tagged mouse BRAF V600E mutant using recombinant human full length N-terminal His-tagged MEK1 as substrate preincubated for 1 hr followed by substrate addition measured after 25 mins by Nu-page gel-based phosphor screen analysis
A-375 = test: Antiproliferative activity against human A375 cells harboring BRAF V600E mutant after 24 hrs by MTT assay; type: functional, cell-based; settings: A-375, 24 h
[2] = Antiproliferative activity against human WM1361 cells harboring wild-type BRAF after 48 hrs by MTT assay; type: functional, cell-based; settings: WM1361, 48 h
HT-29 = test: Antiproliferative activity against human HT-29 cells harboring BRAF V600E mutant after 24 hrs by MTT assay; type: functional, cell-based; settings: HT-29, 24 h

Serine/threonine-protein kinase B-raf, sequence (P28028 whole entry, looked up, stated change not applied): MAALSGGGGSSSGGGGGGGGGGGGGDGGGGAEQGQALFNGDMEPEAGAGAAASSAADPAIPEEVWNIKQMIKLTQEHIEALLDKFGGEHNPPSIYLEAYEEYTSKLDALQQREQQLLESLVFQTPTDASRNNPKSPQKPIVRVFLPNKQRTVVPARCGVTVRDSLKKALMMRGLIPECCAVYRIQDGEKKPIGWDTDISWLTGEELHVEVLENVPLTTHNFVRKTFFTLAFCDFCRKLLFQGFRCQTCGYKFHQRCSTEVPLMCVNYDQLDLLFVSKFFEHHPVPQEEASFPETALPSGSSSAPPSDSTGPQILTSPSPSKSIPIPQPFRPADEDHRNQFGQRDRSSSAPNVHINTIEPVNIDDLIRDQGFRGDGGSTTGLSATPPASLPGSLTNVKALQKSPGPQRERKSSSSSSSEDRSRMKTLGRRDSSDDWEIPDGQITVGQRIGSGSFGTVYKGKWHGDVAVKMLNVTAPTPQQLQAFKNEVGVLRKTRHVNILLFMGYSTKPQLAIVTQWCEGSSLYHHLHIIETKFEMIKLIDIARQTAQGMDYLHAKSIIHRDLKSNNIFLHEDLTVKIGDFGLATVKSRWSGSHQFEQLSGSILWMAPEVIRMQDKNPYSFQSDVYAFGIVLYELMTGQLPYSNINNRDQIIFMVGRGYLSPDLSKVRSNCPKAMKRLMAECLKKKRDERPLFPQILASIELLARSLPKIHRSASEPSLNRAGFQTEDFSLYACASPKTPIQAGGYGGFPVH

IC50 [1]	IC50 (A-375)	IC50 (HT-29)	SMILES	IC50 [2]
1.28 µM	19.8 µM	12.7 µM	COc1ccc(-n2cc(NC(=O)Cn3ccc4ccccc43)cn2)cc1	24.8 µM
0.41 µM	4.57 µM	9.33 µM	COc1ccc(-n2cc(NC(=O)Cc3ccc(OC)c(OC)c3)cn2)cc1	17.6 µM
1.82 µM	27.2 µM	49.9 µM	CCn1cc(NC(=O)Cn2ccc3ccccc32)cn1	47.8 µM
2.34 µM	24.5 µM	24.1 µM	Cc1ccc(-n2cc(NC(=O)Cn3ccc4ccccc43)cn2)cc1	27.4 µM
3.66 µM	17.9 µM	25.6 µM	CCn1cc(NC(=O)Cc2ccc(OC)c(OC)c2)cn1	31.4 µM
0.55 µM	19.8 µM	12.7 µM	O=C(Cn1ccc(-c2ccccn2)n1)Nc1cnn(Cc2ccccc2)c1	28 µM
0.45 µM	2.74 µM	8.73 µM	COc1ccc(CC(=O)Nc2cnn(-c3ccc(C)cc3)c2)cc1OC	16.6 µM
4.43 µM	18.6 µM	32.8 µM	COc1ccc(CC(=O)Nc2cnn(C)c2)cc1OC	40.3 µM
1.23 µM	24.2 µM	26.6 µM	O=C(Cn1ccc2ccccc21)Nc1cnn(-c2ccccc2)c1	25.8 µM
0.46 µM	5.67 µM	10.1 µM	COc1cccc(-n2cc(NC(=O)Cn3ccc4ccccc43)cn2)c1	16.5 µM
1.67 µM	16.8 µM	22.6 µM	Cn1cc(NC(=O)Cn2ccc(-c3cccc(Cl)c3)n2)cn1	27.9 µM
0.36 µM	3.49 µM	7.98 µM	COc1cccc(-n2cc(NC(=O)Cc3ccc(OC)c(OC)c3)cn2)c1	24 µM
0.5 µM	10.4 µM	8.43 µM	COc1ccc(CC(=O)Nc2cnn(Cc3ccccc3)c2)cc1OC	18.8 µM
0.34 µM	3.26 µM	5.7 µM	O=C(Cn1ccc(-c2cccc(Cl)c2)n1)Nc1cnn(Cc2ccccc2)c1	14.9 µM
0.26 µM	3.08 µM	6.16 µM	COc1cccc(-n2cc(NC(=O)Cn3ccc(-c4ccccn4)n3)cn2)c1	15.7 µM
0.73 µM	16.2 µM	11.5 µM	COc1ccc(CC(=O)Nc2cnn(-c3ccccc3)c2)cc1OC	25.6 µM
0.53 µM	10.6 µM	10.8 µM	O=C(Cn1ccc(-c2ccccn2)n1)Nc1cnn(-c2ccccc2)c1	20.7 µM
2.54 µM	23.7 µM	25.4 µM	Cn1cc(NC(=O)Cn2ccc(-c3ccccn3)n2)cn1	31.9 µM
1.19 µM	19.4 µM	12.9 µM	CCn1cc(NC(=O)Cn2ccc(-c3cccc(Cl)c3)n2)cn1	26.5 µM
1.96 µM	17.6 µM	12.3 µM	O=C(Cn1ccc2ccccc21)Nc1cnn(Cc2ccccc2)c1	26.8 µM
4.66 µM	28.9 µM	35.1 µM	Cn1cc(NC(=O)Cn2ccc3ccccc32)cn1	36.5 µM
0.48 µM	11.2 µM	11.1 µM	COc1ccc(-n2cc(NC(=O)Cn3ccc(-c4ccccn4)n3)cn2)cc1	24.4 µM
3.86 µM	23.3 µM	26.8 µM	CCn1cc(NC(=O)Cn2ccc(-c3ccccn3)n2)cn1	29.8 µM
